Experimental data: patent US11572399B2, “Long-acting GIP peptide analogues” (University of Copenhagen, priority 2017, dated 2023)
Peptide text beside a SMILES is read from it. * marks the point of attachment. C16 diacid = O=C(O)CCCCCCCCCCCCCCC(=O)*

Experiments:
human GIP receptor [1] = biological target: T1, human GIP receptor (Homo sapiens, UniProt P48546); experiment: cAMP accumulation assay, antagonism of a GIP-mediated cAMP response (50-80% of max); format: cell-based; conditions: transiently transfected COS-7 cells; Table 1 and text; read-out: cAMP antagonism nM (IC50, antagonistic potency)
T1 construct: host or cells: COS-7, transient transfection (calcium phosphate), cDNA in pCMV-Script
T1 sequence (P48546 22-466): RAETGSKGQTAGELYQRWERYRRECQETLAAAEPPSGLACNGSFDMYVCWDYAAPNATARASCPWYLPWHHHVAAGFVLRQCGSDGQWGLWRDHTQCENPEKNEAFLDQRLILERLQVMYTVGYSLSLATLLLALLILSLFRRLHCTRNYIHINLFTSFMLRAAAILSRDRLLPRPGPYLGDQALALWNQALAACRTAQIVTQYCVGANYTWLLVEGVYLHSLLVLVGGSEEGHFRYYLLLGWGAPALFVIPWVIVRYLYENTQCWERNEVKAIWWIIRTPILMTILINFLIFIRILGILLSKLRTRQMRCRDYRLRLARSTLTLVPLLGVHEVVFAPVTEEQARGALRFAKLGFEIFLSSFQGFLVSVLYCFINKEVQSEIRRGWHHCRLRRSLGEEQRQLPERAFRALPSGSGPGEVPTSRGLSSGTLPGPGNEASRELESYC
Protocol: The day after, the cells were washed twice with Hepes buffered saline (HBS) buffer and incubated with HBS and 1 mM 3-isobutyl-1-methylxanthine (IBMX) for 30 min at 37° C. […] The HitHunter™ cAMP XS assay (DiscoveRx) was carried out according to the manufacturer's instructions.

human GIP receptor [2] = biological target: T1, human GIP receptor; experiment: cAMP accumulation assay, agonism (ligand alone); format: cell-based; conditions: COS-7 cells, Table 1; for Emax: COS-7, intrinsic cAMP activity; for cAMP agonism Emax: intrinsic cAMP activity; for EC50: read-out: cAMP agonism nM (EC50)

## CC[C@H](C)[C@H](NC(=O)[C@H](CO)NC(=O)[C@H](Cc1ccc(O)cc1)NC(=O)[C@H](CC(=O)O)NC(=O)[C@H](CO)NC(=O)[C@@H](NC(=O)[C@H](CCCCNC(=O)CCCCCCCCCCCCCCC(=O)O)NC(=O)[C@@H](NC(=O)CNC(=O)[C@@H](N)CCC(=O)O)[C@@H](C)O)[C@@H](C)CC)C(=O)N[C@@H](C)C(=O)N[C@@H](CCSC)C(=O)N[C@@H](CC(=O)O)C(=O)N[C@@H](CCCCN)C(=O)N[C@H](C(=O)N[C@@H](Cc1c[nH]cn1)C(=O)N[C@@H](CCC(N)=O)C(=O)N[C@@H](CCC(N)=O)C(=O)N[C@@H](CC(=O)O)C(=O)N[C@@H](Cc1ccccc1)C(=O)N[C@H](C(=O)N[C@@H](CC(N)=O)C(=O)N[C@@H](Cc1c[nH]c2ccccc12)C(=O)N[C@@H](CC(C)C)C(=O)N[C@@H](CC(C)C)C(=O)N[C@@H](C)C(=O)N[C@@H](CCC(N)=O)C(=O)N[C@@H](CCCCN)C(N)=O)C(C)C)[C@@H](C)CC [AT297, [hGIP(3-30)NH2[F6K]-C16diacid/6]]
Human GIP receptor [1]
  IC50: 603 nM
Human GIP receptor [2]
  Emax: 19%

## CC[C@H](C)[C@H](NC(=O)[C@H](CO)NC(=O)[C@H](Cc1ccc(O)cc1)NC(=O)[C@H](CC(=O)O)NC(=O)[C@H](CO)NC(=O)[C@H](CCCCNC(=O)CCCCCCCCCCCCCCC(=O)O)NC(=O)[C@H](Cc1ccccc1)NC(=O)[C@@H](NC(=O)CNC(=O)[C@@H](N)CCC(=O)O)[C@@H](C)O)C(=O)N[C@@H](C)C(=O)N[C@@H](CCSC)C(=O)N[C@@H](CC(=O)O)C(=O)N[C@@H](CCCCN)C(=O)N[C@H](C(=O)N[C@@H](Cc1c[nH]cn1)C(=O)N[C@@H](CCC(N)=O)C(=O)N[C@@H](CCC(N)=O)C(=O)N[C@@H](CC(=O)O)C(=O)N[C@@H](Cc1ccccc1)C(=O)N[C@H](C(=O)N[C@@H](CC(N)=O)C(=O)N[C@@H](Cc1c[nH]c2ccccc12)C(=O)N[C@@H](CC(C)C)C(=O)N[C@@H](CC(C)C)C(=O)N[C@@H](C)C(=O)N[C@@H](CCC(N)=O)C(=O)N[C@@H](CCCCN)C(N)=O)C(C)C)[C@@H](C)CC [AT298, [hGIP(3-30)NH2[I7K]-C16diacid/7]]
Human GIP receptor [1]
  IC50: 33 nM
Human GIP receptor [2]
  cAMP agonism Emax: no ag.

## CC[C@H](C)[C@H](NC(=O)[C@H](CO)NC(=O)[C@H](Cc1ccc(O)cc1)NC(=O)[C@H](CC(=O)O)NC(=O)[C@H](CCCCNC(=O)CCCCCCCCCCCCCCC(=O)O)NC(=O)[C@@H](NC(=O)[C@H](Cc1ccccc1)NC(=O)[C@@H](NC(=O)CNC(=O)[C@@H](N)CCC(=O)O)[C@@H](C)O)[C@@H](C)CC)C(=O)N[C@@H](C)C(=O)N[C@@H](CCSC)C(=O)N[C@@H](CC(=O)O)C(=O)N[C@@H](CCCCN)C(=O)N[C@H](C(=O)N[C@@H](Cc1c[nH]cn1)C(=O)N[C@@H](CCC(N)=O)C(=O)N[C@@H](CCC(N)=O)C(=O)N[C@@H](CC(=O)O)C(=O)N[C@@H](Cc1ccccc1)C(=O)N[C@H](C(=O)N[C@@H](CC(N)=O)C(=O)N[C@@H](Cc1c[nH]c2ccccc12)C(=O)N[C@@H](CC(C)C)C(=O)N[C@@H](CC(C)C)C(=O)N[C@@H](C)C(=O)N[C@@H](CCC(N)=O)C(=O)N[C@@H](CCCCN)C(N)=O)C(C)C)[C@@H](C)CC [AT299, [hGIP(3-30)NH2[S8K]-C16diacid/8]] (H-EGTFIK(C16 diacid)DYSIAMDKIHQQDFVNWLLAQK-NH2; N-terminus assumed)
Human GIP receptor [1]
  IC50: 199 nM
Human GIP receptor [2]
  Emax: 15.2%
  EC50: 15 nM

## CC[C@H](C)[C@H](NC(=O)[C@H](CO)NC(=O)[C@H](Cc1ccc(O)cc1)NC(=O)[C@H](CCCCNC(=O)CCCCCCCCCCCCCCC(=O)O)NC(=O)[C@H](CO)NC(=O)[C@@H](NC(=O)[C@H](Cc1ccccc1)NC(=O)[C@@H](NC(=O)CNC(=O)[C@@H](N)CCC(=O)O)[C@@H](C)O)[C@@H](C)CC)C(=O)N[C@@H](C)C(=O)N[C@@H](CCSC)C(=O)N[C@@H](CC(=O)O)C(=O)N[C@@H](CCCCN)C(=O)N[C@H](C(=O)N[C@@H](Cc1c[nH]cn1)C(=O)N[C@@H](CCC(N)=O)C(=O)N[C@@H](CCC(N)=O)C(=O)N[C@@H](CC(=O)O)C(=O)N[C@@H](Cc1ccccc1)C(=O)N[C@H](C(=O)N[C@@H](CC(N)=O)C(=O)N[C@@H](Cc1c[nH]c2ccccc12)C(=O)N[C@@H](CC(C)C)C(=O)N[C@@H](CC(C)C)C(=O)N[C@@H](C)C(=O)N[C@@H](CCC(N)=O)C(=O)N[C@@H](CCCCN)C(N)=O)C(C)C)[C@@H](C)CC [AT300, [hGIP(3-30)NH2[D9K]-C16diacid/9]] (H-EGTFISK(C16 diacid)YSIAMDKIHQQDFVNWLLAQK-NH2; N-terminus assumed)
Human GIP receptor [1]
  IC50: 22 nM
Human GIP receptor [2]
  cAMP agonism Emax: no ag.

## CC[C@H](C)[C@H](NC(=O)[C@H](CCCCN)NC(=O)[C@H](CC(=O)O)NC(=O)[C@H](CCSC)NC(=O)[C@H](CCCCNC(=O)CCCCCCCCCCCCCCC(=O)O)NC(=O)[C@@H](NC(=O)[C@H](CO)NC(=O)[C@H](Cc1ccc(O)cc1)NC(=O)[C@H](CC(=O)O)NC(=O)[C@H](CO)NC(=O)[C@@H](NC(=O)[C@H](Cc1ccccc1)NC(=O)[C@@H](NC(=O)CNC(=O)[C@@H](N)CCC(=O)O)[C@@H](C)O)[C@@H](C)CC)[C@@H](C)CC)C(=O)N[C@@H](Cc1c[nH]cn1)C(=O)N[C@@H](CCC(N)=O)C(=O)N[C@@H](CCC(N)=O)C(=O)N[C@@H](CC(=O)O)C(=O)N[C@@H](Cc1ccccc1)C(=O)N[C@H](C(=O)N[C@@H](CC(N)=O)C(=O)N[C@@H](Cc1c[nH]c2ccccc12)C(=O)N[C@@H](CC(C)C)C(=O)N[C@@H](CC(C)C)C(=O)N[C@@H](C)C(=O)N[C@@H](CCC(N)=O)C(=O)N[C@@H](CCCCN)C(N)=O)C(C)C [AT304, [hGIP(3-30)NH2[A13K]-C16diacid/13]] (H-EGTFISDYSIK(C16 diacid)MDKIHQQDFVNWLLAQK-NH2; N-terminus assumed)
Human GIP receptor [1]
  IC50: 199 nM
Human GIP receptor [2]
  cAMP agonism Emax: no ag.

## CC[C@H](C)[C@H](NC(=O)[C@H](CO)NC(=O)[C@H](Cc1ccc(O)cc1)NC(=O)[C@H](CC(=O)O)NC(=O)[C@H](CO)NC(=O)[C@@H](NC(=O)[C@H](Cc1ccccc1)NC(=O)[C@@H](NC(=O)CNC(=O)[C@@H](N)CCC(=O)O)[C@@H](C)O)[C@@H](C)CC)C(=O)N[C@@H](C)C(=O)N[C@@H](CCCCNC(=O)CCCCCCCCCCCCCCC(=O)O)C(=O)N[C@@H](CC(=O)O)C(=O)N[C@@H](CCCCN)C(=O)N[C@H](C(=O)N[C@@H](Cc1c[nH]cn1)C(=O)N[C@@H](CCC(N)=O)C(=O)N[C@@H](CCC(N)=O)C(=O)N[C@@H](CC(=O)O)C(=O)N[C@@H](Cc1ccccc1)C(=O)N[C@H](C(=O)N[C@@H](CC(N)=O)C(=O)N[C@@H](Cc1c[nH]c2ccccc12)C(=O)N[C@@H](CC(C)C)C(=O)N[C@@H](CC(C)C)C(=O)N[C@@H](C)C(=O)N[C@@H](CCC(N)=O)C(=O)N[C@@H](CCCCN)C(N)=O)C(C)C)[C@@H](C)CC [AT305, [hGIP(3-30)NH2[M14K]-C16diacid/14]] (H-EGTFISDYSIAK(C16 diacid)DKIHQQDFVNWLLAQK-NH2; N-terminus assumed)
Human GIP receptor [1]
  IC50: 166 nM
Human GIP receptor [2]
  Emax: 12%
  EC50: 8 nM

## CC[C@H](C)[C@H](NC(=O)[C@H](CO)NC(=O)[C@H](Cc1ccc(O)cc1)NC(=O)[C@H](CC(=O)O)NC(=O)[C@H](CO)NC(=O)[C@@H](NC(=O)[C@H](Cc1ccccc1)NC(=O)[C@@H](NC(=O)CNC(=O)[C@@H](N)CCC(=O)O)[C@@H](C)O)[C@@H](C)CC)C(=O)N[C@@H](C)C(=O)N[C@@H](CCSC)C(=O)N[C@@H](CCCCNC(=O)CCCCCCCCCCCCCCC(=O)O)C(=O)N[C@@H](CCCCN)C(=O)N[C@H](C(=O)N[C@@H](Cc1c[nH]cn1)C(=O)N[C@@H](CCC(N)=O)C(=O)N[C@@H](CCC(N)=O)C(=O)N[C@@H](CC(=O)O)C(=O)N[C@@H](Cc1ccccc1)C(=O)N[C@H](C(=O)N[C@@H](CC(N)=O)C(=O)N[C@@H](Cc1c[nH]c2ccccc12)C(=O)N[C@@H](CC(C)C)C(=O)N[C@@H](CC(C)C)C(=O)N[C@@H](C)C(=O)N[C@@H](CCC(N)=O)C(=O)N[C@@H](CCCCN)C(N)=O)C(C)C)[C@@H](C)CC [AT306, [hGIP(3-30)NH2[D15K]-C16diacid/15]] (H-EGTFISDYSIAMK(C16 diacid)KIHQQDFVNWLLAQK-NH2; N-terminus assumed)
Human GIP receptor [1]
  IC50: 53 nM
Human GIP receptor [2]
  Emax: 6.6%
  EC50: 13 nM

## CC[C@H](C)[C@H](NC(=O)[C@H](CO)NC(=O)[C@H](Cc1ccc(O)cc1)NC(=O)[C@H](CC(=O)O)NC(=O)[C@H](CO)NC(=O)[C@@H](NC(=O)[C@H](Cc1ccccc1)NC(=O)[C@@H](NC(=O)CNC(=O)[C@@H](N)CCC(=O)O)[C@@H](C)O)[C@@H](C)CC)C(=O)N[C@@H](C)C(=O)N[C@@H](CCSC)C(=O)N[C@@H](CC(=O)O)C(=O)N[C@@H](CCCCN)C(=O)N[C@@H](CCCCNC(=O)CCCCCCCCCCCCCCC(=O)O)C(=O)N[C@@H](Cc1c[nH]cn1)C(=O)N[C@@H](CCC(N)=O)C(=O)N[C@@H](CCC(N)=O)C(=O)N[C@@H](CC(=O)O)C(=O)N[C@@H](Cc1ccccc1)C(=O)N[C@H](C(=O)N[C@@H](CC(N)=O)C(=O)N[C@@H](Cc1c[nH]c2ccccc12)C(=O)N[C@@H](CC(C)C)C(=O)N[C@@H](CC(C)C)C(=O)N[C@@H](C)C(=O)N[C@@H](CCC(N)=O)C(=O)N[C@@H](CCCCN)C(N)=O)C(C)C [AT307, [hGIP(3-30)NH2[I17K]-C16diacid/17]] (H-EGTFISDYSIAMDKK(C16 diacid)HQQDFVNWLLAQK-NH2; N-terminus assumed)
Human GIP receptor [1]
  IC50: 93 nM
Human GIP receptor [2]
  Emax: 4.9%
  EC50: 14 nM
